The record followed here is patent US20260356830A1, “COMPOUNDS FOR MODULATING RET PROTEIN” (Bristol-Myers Squibb Company, priority 2022, published 2026).

The target of the test is T1, CCDC6-RET (Homo sapiens, UniProt P07949+Q16204+Q96SW2).
T1 construct: CCDC6 (natural N-terminal fusion partner, UniProt Q16204); endogenous in cells; host or cells: TPC-1 (parental, papillary thyroid carcinoma)
Briefly: Cellular RET degradation, AlphaLISA, TPC-1 cell line. In kind it is cell-based. As to conditions: for Dmax: TPC1, human, 24 h, read-out: Cell Density TPC-1/CCDC6-RET Ymax %; for DC50: read-out: Cell Density TPC-1/CCDC6-RET DC50, half-maximal degradation concentration, TPC-1 (CCDC6-RET), 24 hrs. The method, then:
Cellular RET degradation compound potency was determined using the bead-based luminescent amplification assay-AlphaLISA Surefire Ultra Detection Kit (Perkin-Elmer). The CCDC6-RET fusion expressing papillary thyroid carcinoma (TPC-1) cell line was selected for screening of potential degraders: Parental (TPC-1/CCDC6-RET). Cells were plated in 384 well culture plates (Greiner Bio-One) at 10,000 cells/well in 50 ul/well DMEM (Fisher Scientific) with 2% FBS serum (Gibco). […] Low normalization wells were media only and high normalization wells were cells treated with DMSO only. Treated cell plates were placed in an incubator at 37 °C and 5% CO2 for 24 hrs. At 24 hrs, cell media was removed by a FELIX automated liquid hander (Analytik Jena) and 25 ul of cell lysis buffer (provided in AlphaLisa kit) was added to each well. […] cell lysate were transferred into a 384-well microplate (Perkin Elmer) before addition of 2.5 ul AlphaLISA Acceptor Bead mix. The plates were sealed and kept at room temperature for 1 hr before addition of donor bead mixture. Donor bead addition was performed in the dark and incubated for >1 hr before AlphaLISA luminescence was measured on an Envision plate reader with an Alphascreen aperture at RT (excitation 680 nm, emission 615 nm). RET protein abundance (and therefore degradation) directly corresponds to luminescence intensity.
Intensities were normalized relative to the average values from 16 wells containing media alone (blank-low) and 16 wells containing cells +DMSO (high). % Degradation for each well was determined using the standard equation, where
DC50 (IC50) values for each compound tested are calculated by analyzing plots of % degradation versus compound concentration, and fitting to the standard 4-parameter logistic curve where,
DC50 values are calculated according to the relationship,
Compound replicates were performed in independent assays. Maximum degradation (YMax) was defined as the maximal % degradation value from the 4-parameter logistic equation, as previously described.

Molecules are shown by their SMILES.

T1 sequence (Q16204+P07949 fused): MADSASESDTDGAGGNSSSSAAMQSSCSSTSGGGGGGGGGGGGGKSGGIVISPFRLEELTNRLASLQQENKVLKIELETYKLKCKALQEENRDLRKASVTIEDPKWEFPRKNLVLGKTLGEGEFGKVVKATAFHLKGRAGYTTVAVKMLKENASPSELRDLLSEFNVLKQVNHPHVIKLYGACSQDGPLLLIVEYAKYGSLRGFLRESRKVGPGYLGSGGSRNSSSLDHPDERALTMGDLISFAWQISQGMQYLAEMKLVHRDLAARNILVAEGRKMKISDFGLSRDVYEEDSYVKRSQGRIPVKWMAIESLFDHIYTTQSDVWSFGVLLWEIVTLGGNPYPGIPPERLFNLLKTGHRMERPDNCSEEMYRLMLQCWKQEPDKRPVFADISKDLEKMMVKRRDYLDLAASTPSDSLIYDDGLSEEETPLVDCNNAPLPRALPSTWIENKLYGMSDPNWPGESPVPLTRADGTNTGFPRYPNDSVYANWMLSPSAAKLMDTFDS
T1 sequence (Q96SW2 whole entry, the tested form may be a part): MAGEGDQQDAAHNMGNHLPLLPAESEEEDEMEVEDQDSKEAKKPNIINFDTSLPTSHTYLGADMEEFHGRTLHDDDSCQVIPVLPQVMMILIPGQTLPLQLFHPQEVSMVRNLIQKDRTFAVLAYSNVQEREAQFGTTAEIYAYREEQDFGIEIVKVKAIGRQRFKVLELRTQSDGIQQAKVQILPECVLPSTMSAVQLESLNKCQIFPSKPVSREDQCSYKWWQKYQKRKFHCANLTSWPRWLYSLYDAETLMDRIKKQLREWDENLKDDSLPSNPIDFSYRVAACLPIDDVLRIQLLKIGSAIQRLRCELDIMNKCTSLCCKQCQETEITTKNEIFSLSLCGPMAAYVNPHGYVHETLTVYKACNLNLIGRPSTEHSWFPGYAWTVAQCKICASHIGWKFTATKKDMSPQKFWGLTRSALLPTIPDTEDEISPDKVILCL
T1 sequence (Q16531 whole entry partner, the tested form may be a part): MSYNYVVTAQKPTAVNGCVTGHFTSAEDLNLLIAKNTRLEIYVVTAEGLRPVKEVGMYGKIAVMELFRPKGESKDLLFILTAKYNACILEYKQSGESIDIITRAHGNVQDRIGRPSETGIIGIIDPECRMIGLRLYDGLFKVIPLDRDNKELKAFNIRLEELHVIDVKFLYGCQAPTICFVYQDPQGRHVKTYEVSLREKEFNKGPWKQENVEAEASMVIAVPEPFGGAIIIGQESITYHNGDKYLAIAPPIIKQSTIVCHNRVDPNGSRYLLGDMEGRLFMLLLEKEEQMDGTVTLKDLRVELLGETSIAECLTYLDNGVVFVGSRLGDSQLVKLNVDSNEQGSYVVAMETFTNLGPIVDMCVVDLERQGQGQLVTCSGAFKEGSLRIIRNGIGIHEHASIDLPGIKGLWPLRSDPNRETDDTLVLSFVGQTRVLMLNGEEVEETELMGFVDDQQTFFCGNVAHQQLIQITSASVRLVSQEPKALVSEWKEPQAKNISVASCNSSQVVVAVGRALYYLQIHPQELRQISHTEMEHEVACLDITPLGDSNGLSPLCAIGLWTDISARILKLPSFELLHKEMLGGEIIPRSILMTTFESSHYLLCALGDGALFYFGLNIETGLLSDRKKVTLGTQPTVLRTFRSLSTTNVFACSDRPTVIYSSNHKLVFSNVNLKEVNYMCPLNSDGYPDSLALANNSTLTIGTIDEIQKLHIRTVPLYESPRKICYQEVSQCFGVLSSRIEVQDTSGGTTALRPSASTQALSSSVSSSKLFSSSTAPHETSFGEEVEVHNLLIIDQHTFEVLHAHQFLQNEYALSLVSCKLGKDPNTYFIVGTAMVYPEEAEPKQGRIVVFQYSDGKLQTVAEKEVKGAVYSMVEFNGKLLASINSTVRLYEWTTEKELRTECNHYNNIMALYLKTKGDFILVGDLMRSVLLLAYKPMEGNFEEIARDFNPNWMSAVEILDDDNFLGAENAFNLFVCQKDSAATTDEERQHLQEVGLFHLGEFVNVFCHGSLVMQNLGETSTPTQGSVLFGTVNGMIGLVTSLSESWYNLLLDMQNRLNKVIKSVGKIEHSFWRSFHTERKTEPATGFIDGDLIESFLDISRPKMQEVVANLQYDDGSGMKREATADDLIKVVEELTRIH

For the compound `CCOc1cc(-c2ccc(N3CCC(COCCN4CCN(C(=O)CCN5CCN(c6ccc7c(c6)C(=O)N(C6CCC(=O)NC6=O)C7)CC5)CC4)(NC(=O)c4cc(F)ccc4F)CC3)nc2)c2c(C#N)cnn2c1` (stereo not shown) [Example 33, N-[1-[5-(3-cyano-6-ethoxy-pyrazolo[1,5-a]pyridin-4-yl)-2-pyridyl]-4-[2-[4-[3-[4-[2-(2,6-dioxo-3-piperidyl)-3-oxo-isoindolin-5-yl]piperazin-1-yl]propanoyl]piperazin-1-yl]ethoxymethyl]-4-piperidyl]-2,5-difluoro-benzamide], the Dmax was 60 to 90% and the DC50 lay within 2 to 10 nM.

As to `CCOc1cc(-c2ccc(N3CCC(CN4CCN(C(=O)CCCCCCN5CCN(c6ccc7c(N8CCC(=O)NC8=O)nn(C)c7c6)CC5)CC4)(NC(=O)c4cc(F)ccc4F)CC3)nc2)c2c(C#N)cnn2c1` [Example 41, N-(1-(5-(3-cyano-6-ethoxypyrazolo[1,5-a]pyridin-4-yl)pyridin-2-yl)-4-((4-(7-(4-(3-(2,4-dioxotetrahydropyrimidin-1(2H)-yl)-1-methyl-1H-indazol-6-yl)piperazin-1-yl)heptanoyl)piperazin-1-yl)methyl)piperidin-4-yl)-2,5-difluorobenzamide], the Dmax was greater than 90% and the DC50 was less than 2 nM.

With `CCOc1cc(-c2ccc(N3CCC(CN(C(=O)CCCCCCN4CCN(c5ccc6c(c5)C(=O)N(C5CCC(=O)NC5=O)C6)CC4)C(C)C)(NC(=O)c4cc(F)ccc4F)CC3)nc2)c2c(C#N)cnn2c1` (stereo not shown) [Example 169, N-[1-(5-{3-cyano-6-ethoxypyrazolo[1,5-a]pyridin-4-yl}pyridin-2-yl)-4-[(7-{4-[2-(2,6-dioxopiperidin-3-yl)-3-oxo-2,3-dihydro-1H-isoindol-5-yl]piperazin-1-yl}-N-(propan-2-yl)heptanamido)methyl]piperidin-4-yl]-2,5-difluorobenzamide], the Dmax was in the range of 60 to 90% and the DC50 lay within 10 to 100 nM.

Take `CCOc1cc(-c2ccc(N3CCC(CN(C)C(=O)CCCCCCN4CCC(c5ccc6c(c5)C(=O)N(C5CCC(=O)NC5=O)C6)CC4)(NC(=O)c4cc(F)ccc4F)CC3)nc2)c2c(C#N)cnn2c1` (stereo not shown) [Example 146, N-[1-(5-{3-cyano-6-ethoxypyrazolo[1,5-a]pyridin-4-yl}pyridin-2-yl)-4-[(7-{4-[2-(2,6-dioxopiperidin-3-yl)-3-oxo-2,3-dihydro-1H-isoindol-5-yl]piperidin-1-yl}-N-methylheptanamido)methyl]piperidin-4-yl]-2,5-difluorobenzamide]: the Dmax was greater than 90% and the DC50 is 10 to 100 nM.

`CCOc1cc(-c2ccc(N3CCC(CN4CCN(C(=O)CCN5CCC(c6ccc7c(c6)C(=O)N(C6CCC(=O)NC6=O)C7)CC5)CC4)(C(=O)NC(C)C)CC3)nc2)c2c(C#N)cnn2c1` (stereo not shown) [Example 76, 1-(5-(3-cyano-6-ethoxypyrazolo[1,5-a]pyridin-4-yl)pyridin-2-yl)-4-((4-(3-(4-(2-(2,6-dioxopiperidin-3-yl)-3-oxoisoindolin-5-yl)piperidin-1-yl)propanoyl)piperazin-1-yl)methyl)-N-isopropylpiperidine-4-carboxamide]: the Dmax was 60 to 90% and the DC50 lay in the range of 10 to 100 nM.

With `CCOc1cc(-c2ccc(N3CCC(CN4CCN(C(=O)CCCCCCCCNc5ccc(C6CCC(=O)NC6=O)cc5)CC4)(NC(=O)c4cc(F)ccc4F)CC3)nc2)c2c(C#N)cnn2c1` (stereo not shown) [Example 21, N-[1-(5-{3-cyano-6-ethoxypyrazolo[1,5-a]pyridin-4-yl}pyridin-2-yl)-4-{[4-(9-{[4-(2,6-dioxopiperidin-3-yl)phenyl]amino}nonanoyl)piperazin-1-yl]methyl}piperidin-4-yl]-2,5-difluorobenzamide], the Dmax was in the range of 60 to 90% and the DC50 lay in the range of 10 to 100 nM.

As to `CCOc1cc(-c2ccc(N3CCC(COCc4cn(CCCCN5CCN(c6ccc7c(c6)CN(C6CCC(=O)NC6=O)C7=O)CC5)nn4)(NC(=O)c4cc(F)ccc4F)CC3)nc2)c2c(C#N)cnn2c1` (stereo not shown) [Example 48, N-[1-[5-(3-cyano-6-ethoxy-pyrazolo[1,5-a]pyridin-4-yl)-2-pyridyl]-4-[[1-[4-[4-[2-(2,6-dioxo-3-piperidyl)-1-oxo-isoindolin-5-yl]piperazin-1-yl]butyl]triazol-4-yl]methoxymethyl]-4-piperidyl]-2,5-difluoro-benzamide], the Dmax is greater than 90% and the DC50 lay in the range of 2 to 10 nM.

For `CCOc1cc(-c2ccc(N3CCC(CN4CCN(C(=O)CN5CCC(c6ccc7c(N8CCC(=O)NC8=O)nn(C)c7c6)CC5)CC4)(NC(=O)c4cc(F)ccc4F)CC3)nc2)c2c(C#N)cnn2c1` [Example 44, N-(1-(5-(3-cyano-6-ethoxypyrazolo[1,5-a]pyridin-4-yl)pyridin-2-yl)-4-((4-(2-(4-(3-(2,4-dioxotetrahydropyrimidin-1(2H)-yl)-1-methyl-1H-indazol-6-yl)piperidin-1-yl)acetyl)piperazin-1-yl)methyl)piperidin-4-yl)-2,5-difluorobenzamide], the Dmax was 60 to 90% and the DC50 is less than 2 nM.

Consider `CCOc1cc(-c2ccc(N3CCC(Cc4ccccc4)(NC(=O)C4CCN(C(=O)CCN5CCC(c6ccc7c(c6)C(=O)N(C6CCC(=O)NC6=O)C7)CC5)CC4)CC3)nc2)c2c(C#N)cnn2c1` (stereo not shown) [Example 52, N-[4-benzyl-1-[5-(3-cyano-6-ethoxy-pyrazolo[1,5-a]pyridin-4-yl)-2-pyridyl]-4-piperidyl]-1-[3-[4-[2-(2,6-dioxo-3-piperidyl)-3-oxo-isoindolin-5-yl]-1-piperidyl]propanoyl]piperidine-4-carboxamide], for which the Dmax is greater than 90% and the DC50 lay within 2 to 10 nM.

With `CCOc1cc(-c2ccc(N3CCC(NC(=O)c4cc(F)ccc4F)(C(=O)NCCCCCCN4CCC(c5ccc6c(c5)C(=O)N(C5CCC(=O)NC5=O)C6)CC4)CC3)nc2)c2c(C#N)cnn2c1` (stereo not shown) [Example 163, 1-(5-{3-cyano-6-ethoxypyrazolo[1,5-a]pyridin-4-yl}pyridin-2-yl)-4-(2,5-difluorobenzamido)-N-(6-{4-[2-(2,6-dioxopiperidin-3-yl)-3-oxo-2,3-dihydro-1H-isoindol-5-yl]piperidin-1-yl}hexyl)piperidine-4-carboxamide], the Dmax was 60 to 90% and the DC50 fell in the range of 2 to 10 nM.

Regarding `CCOc1cc(-c2ccc(N3CCC(CN4CCC5(CCC(CC(=O)N6CCN(c7ccc8c(c7)CN(C7CCC(=O)NC7=O)C8=O)CC6)CC5)CC4)(NC(=O)c4cc(F)ccc4F)CC3)nc2)c2c(C#N)cnn2c1` (stereo not shown) [Example 124, N-[1-(5-{3-cyano-6-ethoxypyrazolo[1,5-a]pyridin-4-yl}pyridin-2-yl)-4-{[9-(2-{4-[2-(2,6-dioxopiperidin-3-yl)-1-oxo-2,3-dihydro-1H-isoindol-5-yl]piperazin-1-yl}-2-oxoethyl)-3-azaspiro[5.5]undecan-3-yl]methyl}piperidin-4-yl]-2,5-difluorobenzamide], the Dmax is greater than 90% and the DC50 was less than 2 nM.

Consider `CCOc1cc(-c2ccc(N3CCC(CN4CCN(C(=O)CCCCCCN5CCN(c6ccc7c(c6)C(=O)N(C6CCC(=O)NC6=O)C7)CC5)CC4)(NC(=O)c4cc(F)ccc4F)CC3)nc2)c2c(C#N)cnn2c1` (stereo not shown) [Example 16, N-[1-(5-{3-cyano-6-ethoxypyrazolo[1,5-a]pyridin-4-yl}pyridin-2-yl)-4-{[4-(7-{4-[2-(2,6-dioxopiperidin-3-yl)-3-oxo-2,3-dihydro-1H-isoindol-5-yl]piperazin-1-yl}heptanoyl)piperazin-1-yl]methyl}piperidin-4-yl]-2,5-difluorobenzamide], for which the Dmax is greater than 90% and the DC50 was in the range of 2 to 10 nM.

`CCOc1cc(-c2ccc(N3CCC(CN4CCN(C(=O)CCN5CC(Oc6ccc7c(c6)CN(C6CCC(=O)NC6=O)C7=O)C5)CC4)(NC(=O)c4cc(F)ccc4F)CC3)nc2)c2c(C#N)cnn2c1` (stereo not shown) [Example 120, N-[1-(5-{3-cyano-6-ethoxypyrazolo[1,5-a]pyridin-4-yl}pyridin-2-yl)-4-({4-[3-(3-{[2-(2,6-dioxopiperidin-3-yl)-1-oxo-2,3-dihydro-1H-isoindol-5-yl]oxy}azetidin-1-yl)propanoyl]piperazin-1-yl}methyl)piperidin-4-yl]-2,5-difluorobenzamide]: the Dmax was greater than 90% and the DC50 was less than 2 nM.

`CCOc1cc(-c2ccc(N3CCC(CN4CCN(CCC(=O)N5CCC(c6ccc7c(c6)C(=O)N(C6CCC(=O)NC6=O)C7)CC5)CC4)(NC(=O)c4cc(F)ccc4F)CC3)nc2)c2c(C#N)cnn2c1` (stereo not shown) [Example 116, N-[1-(5-{3-cyano-6-ethoxypyrazolo[1,5-a]pyridin-4-yl}pyridin-2-yl)-4-{[4-(3-{4-[2-(2,6-dioxopiperidin-3-yl)-3-oxo-2,3-dihydro-1H-isoindol-5-yl]piperidin-1-yl}-3-oxopropyl)piperazin-1-yl]methyl}piperidin-4-yl]-2,5-difluorobenzamide]: the Dmax was greater than 90% and the DC50 lay in the range of 2 to 10 nM.
